Data from patent EP4635945A1, “CRYSTAL FORM OF PROXIMOD, PREPARATION METHOD THEREFOR, AND USE THEREOF” (Jiankuan (Suzhou) Biotechnology Co., Ltd, priority 2022, dated 2024).

Assay: Crystal form stability on vacuum drying (XRPD)
Assay type: physicochemical
Method: After the above sample was dried under vacuum at 50 °C for 6 hours, the XRPD detection was performed. […] The TGA curves of the sample of the crystal form D of proximod which was dried and the sample of the crystal form D of proximod which was dried and placed at room temperature for two days are shown in FIGS. 16 and 17, respectively. […] The theoretical weight loss of the proximod […] is 6.1%. […] Based on the above experimental results, it is inferred that the crystal form D is an unstable sesquihydrate. It is inferred that the crystal form D is an unstable sesquihydrate and is prone to crystal transformation during drying and storage, making it difficult to prepare a pure phase.
The obtained wet sample was subjected to the XRPD detection. The obtained solid was the crystal form F of the present application, and the X-ray powder diffraction (XRPD) pattern of the crystal form F is shown in FIG. 21. After the wet sample was dried under vacuum at 50 °C for 2 hours, the XRPD detection was performed.

| Structure (SMILES) | Crystal form after drying (XRPD) (dried under vacuum at 50 °C for 6 hours) | Crystal form after drying (XRPD) (wet sample dried under vacuum at 50 °C for 2 hours) |
| --- | --- | --- |
| CCCc1nc(-c2ccc(-c3ccc(CCC(N)(CO)CO)cc3)cc2)co1.Cl [Crystal form D, 2-amino-2-{2-(4'-(2-propyloxazol-4-yl)-[1,1'-biphenyl]-4-yl)ethyl}-1,3-propanediol hydrochloride] | partially crystal transformed into the crystal form A | – |
| CCCc1nc(-c2ccc(-c3ccc(CCC(N)(CO)CO)cc3)cc2)co1.Cl [Crystal form F, 2-amino-2-{2-(4'-(2-propyloxazol-4-yl)-[1,1'-biphenyl]-4-yl)ethyl}-1,3-propanediol hydrochloride] | – | partially crystal transformed into the crystal form A |
